EC50 and IC50 data for 19 molecules are collected here from US8536164B2, “Fused pyridine compounds as casein kinase inhibitors” (Pfizer Inc., priority 2010, dated 2013).

The target in assay [1] is T1, human CK1δ (Cos 7 cells cotransfected with mouse Per3-GFP) (Homo sapiens, UniProt P48730).
T1 construct: His tag of the vector pcDNA4/hisA (only the vector name is printed); expressed in transfected cells; host or cells: Cos 7 cells
Nature of the assay: CK1 WCA HCS nuclear translocation assay (CK1δ). Format: cell-based. Conditions: inhibition of mPer3-GFP translocation to the nucleus, overnight exposure, read-out: CK1 δ WCA EC50. On the procedure: (§1) CK1 WCA HCS Nuclear Translocation Assay.
(§2) Cos 7 cells were maintained at 37° C. in 5% CO2 in Dulbecco's Modified Eagle Medium (Gibco 11995) supplemented with 10% fetal bovine serum. Log-phase cells were dislodged with 5 min treatment of TrypLE Express (Gibco 12605) and viable cell count was determined with Cedex cell counter. Cells were diluted in DMEM medium to a density of 1.5e5 viable cells/mL in ⅔ of the final volume of final transfected cell mix. Cells were cotransfected with two plasmid DNAs, mouse Per3-GFP (green fluorescent protein) in pd2EGFP-N1 vector and human CKI in pcDNA4/hisA vector (for CK1Epsilon at a ratio of 1:5 respectively; for CK1δ at a ratio of 1:11 respectively), using Lipofectamine 2000 reagent (Invitrogen) according to the manufacturer's recommendations. The transfection mix contained approximately 0.83 μg/mL of DNA and 6 μL/mL of Lipofectamine 2000, in a total of ⅓ of the final transfection volume in Opti-MEM I medium (Invitrogen). After 20 min at rt, the cell mix was combined with the DNA transfection mix, per manufacturer instructions. 50 μL of the transfected cell suspension was dispensed per well by multidrop dispenser into Greiner 384-well Cellcoat (PDL) plates (Greiner #781946).
(§3) Compounds were solubilized in 100% DMSO, diluted with Opti-MEM I to a 4× concentration before addition to plated cells. After overnight exposure at 37° C. in a CO2 incubator, cells were fixed by the addition of 12% paraformaldehyde (Electron Microscopy Sciences, Hatfield, Pa.) in phosphate-buffered saline (PBS) with 20% sucrose to a final concentration of 4%, and then the cells were incubated for 30 min at rt. Fixative was removed, and cells were washed with PBS and then stained with 0.4 μg/ml Hoechst dye (Invitrogen) in blocking buffer containing 4% goat serum (Vector Labs s-1000) and 0.1% TritonX (Sigma T8787) for 1 h. Cells were washed again with PBS and stored at 4° C. in PBS or scanned immediately with the Cellomics ArrayScan VTI. CKIδ dependent nuclear localization of the GFP-tagged mPer3 protein was quantitated using the Cellomics ArrayScan VTI system utilizing the Cytoplasm to Nucleus translocation bioapplication to calculate the Nuclear-Cytoplasmic Intensity difference. Inhibitors of CK1 δ/ε were tested across a dose response curve to evaluate their ability to inhibit mPer3-GFP translocation to the nucleus. Cells with a total intensity of mPER3:GFP expression equal to or greater than 20,000 are included in analysis.

The target in assay [2] is T2, human CK1Epsilon (Cos 7 cells cotransfected with mouse Per3-GFP) (Homo sapiens, UniProt P49674).
T2 construct: His tag of the vector pcDNA4/hisA (only the vector name is printed); expressed in transfected cells; host or cells: Cos 7 cells
T2 sequence (P49674 whole entry): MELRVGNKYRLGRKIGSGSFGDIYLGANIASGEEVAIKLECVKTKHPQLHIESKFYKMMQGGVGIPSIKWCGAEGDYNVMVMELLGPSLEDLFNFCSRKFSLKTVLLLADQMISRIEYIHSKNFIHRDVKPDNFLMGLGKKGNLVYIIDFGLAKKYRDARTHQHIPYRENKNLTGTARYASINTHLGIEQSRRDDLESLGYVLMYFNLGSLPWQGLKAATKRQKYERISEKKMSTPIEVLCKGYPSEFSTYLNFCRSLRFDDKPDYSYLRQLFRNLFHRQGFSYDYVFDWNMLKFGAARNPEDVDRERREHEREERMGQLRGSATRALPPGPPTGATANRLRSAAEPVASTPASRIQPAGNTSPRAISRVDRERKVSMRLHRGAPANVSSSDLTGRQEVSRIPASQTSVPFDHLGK
Put plainly: CK1 WCA HCS nuclear translocation assay (CK1ε). Format: cell-based. To be noted: inhibition of mPer3-GFP translocation to the nucleus, overnight exposure, read-out: CK1 ε WCA EC50. On the procedure: as §1, §2, §3

The target of the next assay is CKIδ wild type (Homo sapiens, UniProt P48730). Nature of the assay: CK1δ kinase assay (Kinase-Glo). Format: biochemical. To be noted: 10 μM ATP, 2 nM CKIδ, 85 min at 25° C.; read-out: CK1 δ IC50. On the procedure: The CK1δ kinase assay was performed in a 40 μl final volume in buffer containing 50 mM Tris, pH 7.5, 10 mM MgCl2, 1 mM dithiothreitol, 100 μg/mL BSA with 10 μM ATP, 2 nM CKIδ wild type, and 42 μM peptide substrate PLSRTLp[…] (Flotow et al., 1990) in the presence of 1 μl of CKIδ inhibitor or 4% DMSO. The reaction was incubated for 85 min at 25° C.; detection was carried out as described for the Kinase-Glo Assay (Promega). Luminescent output was measured on the Perkin Elmer Envision plate reader (PerkinElmer, Waltham, Mass.).
Sequence of CKIδ wild type (P48730 whole entry): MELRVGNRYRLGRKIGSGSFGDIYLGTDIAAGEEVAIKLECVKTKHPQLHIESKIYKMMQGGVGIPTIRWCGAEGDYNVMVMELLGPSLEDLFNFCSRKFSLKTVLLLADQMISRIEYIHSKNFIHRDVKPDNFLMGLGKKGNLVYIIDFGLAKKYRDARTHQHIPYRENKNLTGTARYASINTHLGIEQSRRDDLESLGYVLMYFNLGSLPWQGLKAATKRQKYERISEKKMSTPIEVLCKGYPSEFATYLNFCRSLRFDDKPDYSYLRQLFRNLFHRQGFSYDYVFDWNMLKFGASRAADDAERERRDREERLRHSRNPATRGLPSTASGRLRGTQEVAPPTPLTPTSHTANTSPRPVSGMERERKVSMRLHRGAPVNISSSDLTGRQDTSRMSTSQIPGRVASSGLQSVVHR
For orientation: Kinase-Glo measures the ATP left after a reaction by luminescence.

The next assay has as its target CKI ε wild type (Homo sapiens, UniProt P49674). Put plainly: CK1ε kinase assay (Kinase-Glo). Format: biochemical. Conditions: 10 μM ATP, 2.5 nM CKI ε, 70 min at 25° C.; read-out: CK1 ε:IC50. On the procedure:
The CK1ε kinase assay was performed in a 40-μl final volume in buffer containing 50 mM Tris, pH 7.5, 10 mM MgCl2, 1 mM dithiothreitol, 100 μg/mL BSA with 10 μM ATP, 2.5 nM CKI ε wild type, and 42 μM peptide substrate PLSRTLp[…] (Flotow et al., 1990) in the presence of 1 μl of CKI ε inhibitor or 4% DMSO. The reaction was incubated for 70 min at 25° C.; detection was carried out as described for the Kinase-Glo Assay (Promega). Luminescent output was measured on the Perkin Elmer Envision plate reader (PerkinElmer, Waltham, Mass.).

Where only a bound is given, the exact number is not on record here.

Sequence of CKI ε wild type (P49674 whole entry): as the sequence (P49674 whole entry) above
T1 sequence (P48730 whole entry): as the sequence (P48730 whole entry) above

Broadly, the EC50 is the concentration at which the effect is half-maximal. Take `Cn1cc(-c2ccnc3c2CN(S(=O)(=O)C2CC2)C3)c(-c2ccc(F)cc2)n1` [Example 12, 6-(cyclopropylsulfonyl)-4-[3-(4-fluorophenyl)-1-methyl-1H-pyrazol-4-yl]-6,7-dihydro-5H-pyrrolo[3,4-b]pyridine]: the results for the EC50 in assay [1] and in assay [2] were 202 nM and 882 nM, respectively.

With `Cn1cc(-c2ccnc3c2CN(C(=O)CC2CC2)C3)c(-c2ccc(F)cc2)n1` [Example 15, 6-(cyclopropylacetyl)-4-[3-(4-fluorophenyl)-1-methyl-1H-pyrazol-4-yl]-6,7-dihydro-5H-pyrrolo[3,4-b]pyridine], the EC50 in assay [1] amounted to 12.6 nM; in assay [2], 75.4 nM.

For `CN1Cc2nccc(-c3cn(C)nc3-c3ccc(Cl)cc3)c2C1=O` [Example 3, 4-[3-(4-chlorophenyl)-1-methyl-1H-pyrazol-4-yl]-6-methyl-6,7-dihydro-5H-pyrrolo[3,4-b]pyridin-5-one], the EC50 is 78.2 nM in assay [1] and 343 nM in assay [2].

Regarding `Cn1cc(-c2ccnc3c2CN(C(=O)C2CC2)C3)c(-c2ccc(F)cc2)n1` [Example 21, 6-(cyclopropylcarbonyl)-4-[3-(4-fluorophenyl)-1-methyl-1H-pyrazol-4-yl]-6,7-dihydro-5H-pyrrolo[3,4-b]pyridine], the EC50 in assay [1] turned out to be 18.3 nM; in assay [2], 82.3 nM.

As for `CC(=O)N1Cc2nccc(-c3cn(C)nc3-c3ccc(F)cc3)c2C1` [Example 14, 6-acetyl-4-[3-(4-fluorophenyl)-1-methyl-1H-pyrazol-4-yl]-6,7-dihydro-5H-pyrrolo[3,4-b]pyridine], the EC50 was determined as 40.2 nM in assay [1] and 150 nM in assay [2].

Consider `Cn1cc(-c2ccnc3c2CN(C(=O)Cc2ncccn2)C3)c(-c2ccc(F)cc2)n1` [Example 20, 4-[3-(4-fluorophenyl)-1-methyl-1H-pyrazol-4-yl]-6-(pyrimidin-2-ylacetyl)-6,7-dihydro-5H-pyrrolo[3,4-b]pyridine], for which the EC50 in assay [1] was 84.7 nM; in assay [2] it was 361 nM.

Usually IC50 stands for the point on the concentration scale where inhibition reaches its midpoint. For `Cn1cc(-c2ccnc3c2C(=O)N([C@H]2CCOC2=O)C3)c(-c2ccc(F)cc2)n1` [Example 46, 4-[3-(4-fluorophenyl)-1-methyl-1H-pyrazol-4-yl]-6-[(3S)-2-oxotetrahydrofuran-3-yl]-6,7-dihydro-5H-pyrrolo[3,4-b]pyridin-5-one], the IC50 was found to be 68.7 nM on CKIδ wild type and 384 nM at CKI ε wild type. Also, in assay [1], the EC50 is 1430 nM.

Take `Cc1noc(CCN2Cc3nccc(-c4cn(C)nc4-c4ccc(F)cc4)c3C2=O)n1` [Example 38, 4-[3-(4-fluorophenyl)-1-methyl-1H-pyrazol-4-yl]-6-[2-(3-methyl-1,2,4-oxadiazol-5-yl)ethyl]-6,7-dihydro-5H-pyrrolo[3,4-b]pyridin-5-one]: the IC50 is 18.6 nM on CKIδ wild type and 92 nM at CKI ε wild type. Further, the EC50 in assay [1] stood at 71.4 nM.

Take `CC(C)OC(=O)CN1Cc2nccc(-c3cn(C)nc3-c3ccc(F)cc3)c2C1=O` [Example 49, isopropyl {4-[3-(4-fluorophenyl)-1-methyl-1H-pyrazol-4-yl]-5-oxo-5,7-dihydro-6H-pyrrolo[3,4-b]pyridin-6-yl}acetate]: the IC50 stood at 108 nM at CKIδ wild type and 496 nM at CKI ε wild type. Moreover, in assay [1], the EC50 is 506 nM.

For the molecule `CCC[C@@H](C)N1Cc2nccc(-c3cn(C)nc3-c3ccc(F)cc3)c2C1=O` [Example 47, 4-[3-(4-fluorophenyl)-1-methyl-1H-pyrazol-4-yl]-6-[(1R)-1-methylbutyl]-6,7-dihydro-5H-pyrrolo[3,4-b]pyridin-5-one], the IC50 on CKIδ wild type is above 160 nM; on CKI ε wild type, above 423 nM. Moreover, the EC50 in assay [1] is 89.7 nM.

For the molecule `Cn1cc(-c2ccnc3c2C(=O)N(C2CCOCC2)C3)c(-c2ccc(F)cc2)n1` [Example 36, 4-[3-(4-fluorophenyl)-1-methyl-1H-pyrazol-4-yl]-6-(tetrahydro-2H-pyran-4-yl)-6,7-dihydro-5H-pyrrolo[3,4-b]pyridin-5-one], the IC50 on CKIδ wild type was above 195 nM; at CKI ε wild type, above 516 nM. Moreover, the EC50 in assay [1] is 224 nM.

As to `Cn1cc(CCN2Cc3nccc(-c4cn(C)nc4-c4ccc(F)cc4)c3C2=O)cn1` [Example 33, 4-[3-(4-fluorophenyl)-1-methyl-1H-pyrazol-4-yl]-6-[2-(1-methyl-1H-pyrazol-4-yl)ethyl]-6,7-dihydro-5H-pyrrolo[3,4-b]pyridin-5-one], the IC50 was above 75.5 nM at CKIδ wild type and above 230 nM at CKI ε wild type. In assay [1], the EC50 was 232 nM.

In the case of `CCOCCCN1Cc2nccc(-c3cn(C)nc3-c3ccc(F)cc3)c2C1=O` [Example 51, 6-(3-ethoxypropyl)-4-[3-(4-fluorophenyl)-1-methyl-1H-pyrazol-4-yl]-6,7-dihydro-5H-pyrrolo[3,4-b]pyridin-5-one], the figures for the IC50 at CKIδ wild type and on CKI ε wild type were 14.6 nM and 63.8 nM, respectively. The EC50 in assay [1] amounted to 129 nM.

Take `Cc1c(CN2Cc3nccc(-c4cn(C)nc4-c4ccc(F)cc4)c3C2=O)cnn1C` [Example 35, 6-[(1,5-dimethyl-1H-pyrazol-4-yl)methyl]-4-[3-(4-fluorophenyl)-1-methyl-1H-pyrazol-4-yl]-6,7-dihydro-5H-pyrrolo[3,4-b]pyridin-5-one]: the IC50 at CKIδ wild type stood at 23.3 nM; at CKI ε wild type, 130 nM. In addition, the EC50 in assay [1] amounted to 104 nM.

Turning to `Cn1cc(-c2ccnc3c2C(=O)N(C2CCCC2)C3)c(-c2ccc(F)cc2)n1` [Example 32, 6-cyclopentyl-4-[3-(4-fluorophenyl)-1-methyl-1H-pyrazol-4-yl]-6,7-dihydro-5H-pyrrolo[3,4-b]pyridin-5-one], the IC50 on CKIδ wild type was determined as 8.93 nM; on CKI ε wild type, 40.8 nM. For the same molecule, in assay [1], the EC50 was 84.9 nM.

Take `Cn1cc(-c2ccnc3c2C(=O)N(Cc2cccnc2)C3)c(-c2ccc(F)cc2)n1` [Example 50, 4-[3-(4-fluorophenyl)-1-methyl-1H-pyrazol-4-yl]-6-(pyridin-3-ylmethyl)-6,7-dihydro-5H-pyrrolo[3,4-b]pyridin-5-one]: the figures for the IC50 at CKIδ wild type and at CKI ε wild type were 21.3 nM and 145 nM, respectively. Besides, the EC50 in assay [1] came out at 83.6 nM.

As for `CN(C)C(=O)CN1Cc2nccc(-c3cn(C)nc3-c3ccc(F)cc3)c2C1=O` [Example 43, 2-{4-[3-(4-fluorophenyl)-1-methyl-1H-pyrazol-4-yl]-5-oxo-5,7-dihydro-6H-pyrrolo[3,4-b]pyridin-6-yl}-N,N-dimethylacetamide], the figures for the IC50 at CKIδ wild type and at CKI ε wild type were 93.2 nM and 512 nM, respectively. Also, the EC50 in assay [1] turned out to be 564 nM.

In the case of `Cn1cc(-c2ccnc3c2C(=O)N(Cc2ccccc2)C3)c(-c2ccc(F)cc2)n1` [Example 5, 6-benzyl-4-[3-(4-fluorophenyl)-1-methyl-1H-pyrazol-4-yl]-6,7-dihydro-5H-pyrrolo[3,4-b]pyridin-5-one], the IC50 at CKIδ wild type amounted to 6.05 nM; on CKI ε wild type, 39 nM. Also, the EC50 in assay [1] worked out at 16.4 nM.

As for `COCCCN1Cc2nccc(-c3cn(C)nc3-c3ccc(F)cc3)c2C1=O` [Example 29, 4-[3-(4-fluorophenyl)-1-methyl-1H-pyrazol-4-yl]-6-(3-methoxypropyl)-6,7-dihydro-5H-pyrrolo[3,4-b]pyridin-5-one], the values for the IC50 at CKIδ wild type and at CKI ε wild type were 26.2 nM and 131 nM, respectively. Also, the EC50 in assay [1] turned out to be 217 nM.
